# Experimental data reported in publication PMC7396987, “Biological Activity of Pseudovitamin B12 on Cobalamin-Dependent Methylmalonyl-CoA Mutase and Methionine Synthase in Mammalian Cultured COS-7 Cells” (Molecules, 2020).
# Molecular target: T1, human MS (hMS; recombinant FLAG-tagged methionine synthase) (Homo sapiens, UniProt Q99707)
# T1 construct: gene MTR; full-length ORF from human brain cerebral cortex cDNA in p3xFLAG-Myc-CMV (p3xFLAG-hMS), N-terminal 3xFLAG tag kept; expressed in COS-7 cells, apoenzyme in cell homogenate (low endogenous monkey MS background)
# Assay: activation of apo-MS in cell homogenate, HPLC activity assay, saturation fit
# Assay type: biochemical
# Settings: cobalamin reduced by titanium citrate; substrate 5-methyltetrahydrofolate; homogenate of MS cDNA-transfected COS-7 cells grown without OH-Cbl; read-out: apparent Kd
# T1 sequence (Q99707 2-1265 limits assumed): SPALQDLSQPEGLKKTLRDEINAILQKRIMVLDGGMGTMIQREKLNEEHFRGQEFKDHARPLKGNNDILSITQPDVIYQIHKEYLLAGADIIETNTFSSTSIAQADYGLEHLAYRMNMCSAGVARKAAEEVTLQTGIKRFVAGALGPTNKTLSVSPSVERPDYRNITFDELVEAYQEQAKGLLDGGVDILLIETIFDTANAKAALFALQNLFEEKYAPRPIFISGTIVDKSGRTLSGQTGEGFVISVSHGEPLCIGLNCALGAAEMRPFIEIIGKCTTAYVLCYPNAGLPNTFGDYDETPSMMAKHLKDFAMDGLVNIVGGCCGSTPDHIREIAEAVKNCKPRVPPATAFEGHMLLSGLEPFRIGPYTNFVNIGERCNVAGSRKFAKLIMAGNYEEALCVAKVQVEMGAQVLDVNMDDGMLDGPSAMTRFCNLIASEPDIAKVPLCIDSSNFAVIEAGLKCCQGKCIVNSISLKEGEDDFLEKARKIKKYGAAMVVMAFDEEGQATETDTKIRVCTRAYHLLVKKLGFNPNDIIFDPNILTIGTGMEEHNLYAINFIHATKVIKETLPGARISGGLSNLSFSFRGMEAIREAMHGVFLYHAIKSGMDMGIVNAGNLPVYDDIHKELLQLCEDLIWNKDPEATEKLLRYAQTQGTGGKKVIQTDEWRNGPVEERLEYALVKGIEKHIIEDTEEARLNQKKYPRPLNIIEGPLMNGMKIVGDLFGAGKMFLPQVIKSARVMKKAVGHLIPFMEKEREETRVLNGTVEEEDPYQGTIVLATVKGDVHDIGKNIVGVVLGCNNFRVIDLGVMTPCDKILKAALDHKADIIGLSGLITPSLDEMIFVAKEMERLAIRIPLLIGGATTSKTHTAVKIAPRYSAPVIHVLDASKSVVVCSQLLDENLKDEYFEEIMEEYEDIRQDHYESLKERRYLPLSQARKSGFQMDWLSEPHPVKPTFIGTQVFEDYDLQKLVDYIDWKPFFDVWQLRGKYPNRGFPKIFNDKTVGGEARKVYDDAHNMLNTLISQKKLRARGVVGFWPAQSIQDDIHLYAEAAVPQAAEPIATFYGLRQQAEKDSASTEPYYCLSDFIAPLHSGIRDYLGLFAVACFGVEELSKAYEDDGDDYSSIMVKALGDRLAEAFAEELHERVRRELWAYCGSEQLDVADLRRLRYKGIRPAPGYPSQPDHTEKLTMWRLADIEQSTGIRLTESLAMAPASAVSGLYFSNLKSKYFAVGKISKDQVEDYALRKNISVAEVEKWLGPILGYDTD
substance,measurement,value
(Ade)OH-Cba [compound 6],Kd,~26.3 µM
